This note sets out measurements from patent US11219623B2, “Inflammasome inhibition for the treatment of Parkinson's disease, Alzheimer's disease and multiple sclerosis” (University of Kentucky Research Foundation, priority 2015, dated 2022).

Entries after “also recorded” stand apart in the source; their conditions may differ.

In assay [1] the test system is Caspase-1. The experiment in a line: iGLuc luminescence assay of ATP-induced Caspase-1 activation in J774 iGLuc cells. In kind it is cell-based, mouse. The protocol: Caspase-1 is the enzyme at the core of the inflammasome complex and is an important danger response signal and mediator of RPE cell death in AMD. […] Importantly, there was some difference between individual compounds in terms of the dose response curve, emphasizing the need to test each compound (with unique R group(s)) individually.
To obtain the data set forth in FIGS. 64-73, an iGLuc assay was conducted (modified from Bartok et al. iGLuc: a luciferase-based inflammasome and protease activity reporter. Nature Methods 2013; 10(2):147-54). Briefly, 100,000 iGLuc cells per well were plated in a 96 well plate overnight. The next morning, media is aspirated from the plate and replaced with 75 μL of serum free DMEM with drugs (NRTIs or modified NRTIs) for 30 min. After 30 minutes of drug exposure, 20 mM ATP (25 μL) is added for a final concentration of 5 mM. 50 μL of media from each well is collected and 50 μL of coelenterazine 4.4 μM is added to each sample, and luminescence is read immediately.

In assay [2] the test system is Caspase-1. Put plainly: Alu RNA-induced Caspase-1 activation, primary mouse RPE cells. In kind it is cell-based.
The test system of assay [3] is Caspase-1. Put plainly: LPS/ATP-induced Casp-1 activation, primary human RPE cells. In kind it is cell-based. The following applies: 25/100 uM. An excerpt: The loading control in FIG. 8 is vinculin. Furthermore, as shown, LPS and ATP activate the NLRP3 inflammasome only in combination, thus treatment with one or the other alone is useful as a control for this experiment.

For assay [4], the system named is IL-1 beta. Put plainly: LPS/ATP-induced IL-1 beta secretion, mouse bone marrow-derived macrophages. In kind it is cell-based. As to conditions: primary mouse bone marrow-derived macrophages. An excerpt:
To determine whether LPS/ATP-induced inflammasome activation can be inhibited without RT inhibition, the present inventors utilized thymidine kinase-deficient (Raji/TK^−) and -expressing (Raji/TK^+) cells (Balzarini et al., 1989).

Assay [5] relates to IL-1 beta. Put plainly: MSU-induced IL-1 beta secretion from PMA-differentiated THP-1 monocytes, ELISA. The following applies: 25-1000 uM. The format is cell-based, human. An excerpt:
Human THP-1 monocytes were differentiated into macrophages with PMA.
To illustrate this, human THP-1 monocytes were differentiated into macrophages with PMA. Treatment with MSU increased IL-1 beta secretion compared to non-treated cells. […]

The test system of a further assay is NLRP3 mRNA. Put plainly: NLRP3 priming (mRNA) induced by Alu RNA, primary human RPE cells. The format is cell-based. As to conditions: 100 uM; 16 hours; normalized to 18S RNA. The protocol:
Indeed, as provided in the bar graph of FIG. 13, Alu RNA transfection increases NLRP3 mRNA levels in primary human RPE cells at 16 hours, an event termed “priming” (Y-axis) compared to mock (transfection reagent alone).

The test system of a further assay is IL-1 beta mRNA. Put plainly: IL-1beta priming (mRNA) induced by Alu RNA, primary human RPE cells. In kind it is cell-based. As to conditions: 100 uM; 24 hours; normalized to 18S RNA. The protocol:
FIG. 14 illustrates that Alu RNA transfection increases IL-1 beta mRNA levels in primary human RPE cells at 24 hours, an event termed “priming”, (Y-axis) compared to mock (transfection reagent alone).

For assay [6], the system named is mitochondrial reactive oxygen species (mtROS). Put plainly: Mitochondrial ROS caused by Alu expression, MitoSox assay, primary human RPE cells. In kind it is cell-based. The protocol:
After 15 hours cells were co-stained for mtROS (red) and for cell count, nuclei (blue; Hoechst DNA stain).
In FIG. 54, mitochondrial reactive oxygen species (ROS) were visualized with MitoSox (Red) and cell nuclei with Hoechst (Blue).

Another assay addresses T1, rat P2X7 receptor (Rattus norvegicus, UniProt Q64663).
T1 construct: expressed in transfected cells; host or cells: HEK293 cells
The experiment in a line: P2X7 cation channel function, patch clamp, HEK293 cells expressing rat P2X7. The following applies: rat P2X7 in HEK293. The format is cell-based.

In assay [7] the test system is human LINE-1 retrotransposon. The experiment in a line: EGFP cell culture L1 retrotransposition assay in HeLa cells. The format is cell-based. As to conditions: 7 days after transfection, flow cytometry. As to the method:
These findings pave way for the rational re-design and improvement of nucleoside analogs as novel therapeutics. The enhanced green fluorescent protein (EGFP) cell culture L1 retrotransposition assay was performed in HeLa cells. […] Transfected cells were selected in puromycin. 7 days after transfection, cells that underwent retrotransposition (EGFP-positive) were assayed by flow cytometry. Cells were gated based on background fluorescence of plasmid JM111, which has two point mutations in L1-ORF1 that abolish retrotransposition. Data are normalized with RPS set to 1.

Assay [8] in a line: NLRP3- and P2X7-driven model of sterile liver inflammation. As to conditions: in vivo. An excerpt:
To explore the potential therapeutic relevance of NRTIs beyond the Alu-induced model of geographic atrophy (GA), it was hypothesized that if NRTIs function as generic inflammasome inhibitors, then they might be broadly useful in other animal models of disease that are also driven by P2X7.

In another assay the test system is wild-type mice. Put plainly: Alu RNA-induced RPE degeneration, mouse model of dry AMD. The following applies: co-delivered to the vitreous humor; one week after delivery.
In a further assay the test system is IRAK4. Put plainly: Alu RNA-induced IRAK4 phosphorylation, primary human RPE cells.
Assay [9] deals with Caspase-1. The experiment in a line: LPS/ATP-induced Caspase-1 activation, mouse bone marrow-derived macrophages, western blot.

T1 sequence (Q64663 whole entry): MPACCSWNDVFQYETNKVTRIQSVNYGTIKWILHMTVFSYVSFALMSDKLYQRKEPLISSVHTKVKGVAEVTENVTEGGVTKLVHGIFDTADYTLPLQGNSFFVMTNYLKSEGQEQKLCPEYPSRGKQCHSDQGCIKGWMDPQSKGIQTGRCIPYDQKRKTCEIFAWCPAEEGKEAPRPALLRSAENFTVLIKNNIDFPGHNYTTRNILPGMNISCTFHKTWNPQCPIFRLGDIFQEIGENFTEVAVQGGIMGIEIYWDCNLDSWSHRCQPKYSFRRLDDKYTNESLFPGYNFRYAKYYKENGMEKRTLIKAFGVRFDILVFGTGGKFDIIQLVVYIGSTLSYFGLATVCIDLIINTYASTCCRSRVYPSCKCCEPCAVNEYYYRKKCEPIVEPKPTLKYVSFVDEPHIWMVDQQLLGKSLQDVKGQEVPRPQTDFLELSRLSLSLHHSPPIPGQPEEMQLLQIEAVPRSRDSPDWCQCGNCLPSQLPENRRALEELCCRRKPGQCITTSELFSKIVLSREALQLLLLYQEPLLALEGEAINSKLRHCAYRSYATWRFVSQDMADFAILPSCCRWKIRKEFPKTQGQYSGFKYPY

Consider `Cc1cn([C@H]2C=C[C@@H](CO)O2)c(=O)[nH]c1=O` [d4T, 2′3′ dideoxythymidine], for which, in the assay on Caspase-1 [1] (ATP 5 mM, drug 1 nM-100 μM, N=3), the “Caspase-1 cleavage (luminescence)” value is recorded as “reduces Caspase-1 cleavage in a dose-dependent fashion”. Besides, the “reduction of inflammasome activation” value in the assay with Caspase-1 [1] (ATP (5 mM), mouse J774 iGLuc cells, FIGS. 70-73) was “about 35%”. Besides, the “Caspase 1 cleavage to active 20 kDa form induced by Alu RNA” value in the assay on Caspase-1 [2] is recorded as “prevents Caspase 1 cleavage”. Besides, in the assay on Caspase-1 [3], the “Casp-1 activation induced by LPS/ATP” value is on record as “blocks Casp-1 activation”. The “secretion of mature IL-1 beta upon LPS/ATP” value in the assay on IL-1 beta [4] is “blocks secretion of mature IL-1 beta”. For the same compound, the “IL-1beta secretion induced by MSU” value with IL-1 beta [5] is on record as “did not significantly affect IL-1beta secretion”. In addition, in the assay on NLRP3 mRNA, the “NLRP3 mRNA levels (priming) induced by Alu RNA” value is “reduces NLRP3 priming”. For the same compound, the “IL-1 beta mRNA levels (priming) induced by Alu RNA” value with IL-1 beta mRNA is on record as “reduces IL-1beta priming”. Further, in [6], the “mitochondrial ROS caused by Alu expression (pAluA)” value was “reduces mitochondrial ROS; also recorded: prevents pAlu-induced mitochondrial ROS generation”. The “P2X7 cation channel function” value on rat P2X7 receptor is on record as “did not significantly modulate P2X7 cation channel function”. The “L1 retrotransposition (EGFP-positive cells)” value in [7] is listed as “blocked L1 retrotransposition”. In [8], the “neutrophil migration to the focus of liver injury” value is listed as “reduced neutrophil migration”. Further, the “Alu RNA-induced RPE cell death” value with wild-type mice was “prevents Alu RNA-induced RPE cell death in a dose-dependent manner”. Further, the “IRAK4 phosphorylation induced by Alu RNA” value in the assay on IRAK4 is recorded as “blocks phosphorylation of IRAK4”. Moreover, in the assay with Caspase-1 [9] (100 uM, cell culture supernatants), the “Caspase-1 activation (active p20 band) induced by LPS/ATP” value is given as “inhibit Caspase-1 activation”. Also, the “LPS/ATP-induced Caspase-1 maturation” value in the assay with Caspase-1 [9] (concentration not given) was “inhibited LPS/ATP-induced Caspase-1 maturation”.
